Results reported in patent US20090018134A1, “Compounds - 945” (AstraZeneca AB, priority 2007, published 2009).

What follows are compounds tested against T1, mTOR (Homo sapiens, UniProt P42345) (assay: In Vitro mTOR Kinase Assay (Echo), Test (a)(ii)). Conditions: read-out: mTOR Kinase Assay (Echo).
T1 construct: FLAG; made in house
T1 sequence (P42345 1362-2549): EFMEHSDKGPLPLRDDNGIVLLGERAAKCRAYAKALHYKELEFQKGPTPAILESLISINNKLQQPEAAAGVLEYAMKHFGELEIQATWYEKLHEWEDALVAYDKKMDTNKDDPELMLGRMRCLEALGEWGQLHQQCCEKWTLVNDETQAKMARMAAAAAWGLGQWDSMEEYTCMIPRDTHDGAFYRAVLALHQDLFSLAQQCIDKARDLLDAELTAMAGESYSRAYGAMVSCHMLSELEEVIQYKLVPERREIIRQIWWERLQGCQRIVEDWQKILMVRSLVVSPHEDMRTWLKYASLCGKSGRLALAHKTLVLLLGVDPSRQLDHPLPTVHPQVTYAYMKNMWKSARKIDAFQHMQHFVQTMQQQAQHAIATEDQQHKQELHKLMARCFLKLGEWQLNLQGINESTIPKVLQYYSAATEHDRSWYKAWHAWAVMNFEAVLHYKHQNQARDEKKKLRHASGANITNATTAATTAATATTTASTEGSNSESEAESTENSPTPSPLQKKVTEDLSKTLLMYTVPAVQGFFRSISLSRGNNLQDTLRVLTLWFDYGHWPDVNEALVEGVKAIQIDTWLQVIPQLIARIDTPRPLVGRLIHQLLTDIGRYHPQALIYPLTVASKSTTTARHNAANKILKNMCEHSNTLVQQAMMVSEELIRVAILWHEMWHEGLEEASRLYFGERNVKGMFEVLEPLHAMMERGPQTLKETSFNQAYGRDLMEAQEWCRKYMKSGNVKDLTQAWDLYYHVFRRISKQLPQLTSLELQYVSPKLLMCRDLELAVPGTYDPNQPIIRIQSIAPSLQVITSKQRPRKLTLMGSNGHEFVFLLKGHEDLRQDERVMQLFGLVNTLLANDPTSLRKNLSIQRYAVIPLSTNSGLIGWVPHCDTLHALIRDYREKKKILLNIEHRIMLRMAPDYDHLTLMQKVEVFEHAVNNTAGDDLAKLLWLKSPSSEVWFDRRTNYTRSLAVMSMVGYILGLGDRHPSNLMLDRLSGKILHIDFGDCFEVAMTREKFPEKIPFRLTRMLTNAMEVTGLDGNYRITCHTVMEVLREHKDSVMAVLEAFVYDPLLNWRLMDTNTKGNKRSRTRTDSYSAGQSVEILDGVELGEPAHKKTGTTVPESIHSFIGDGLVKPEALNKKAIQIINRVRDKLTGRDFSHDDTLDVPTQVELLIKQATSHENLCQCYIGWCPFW
Format: biochemical
Outline: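 FLAG-tagged truncated mTOR (residues 1362-2549), expressed in HEK293 and purified via the FLAG tag, phosphorylated a biotinylated peptide over 2 hours at room temperature. EDTA stopped the reaction. Phospho-T389 was detected overnight by AlphaScreen using the p70 S6K T389 antibody with Protein A/streptavidin beads; IC50 reported.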
`C[C@H]1COCCN1c1cc(C2(S(=O)(=O)c3ccc(F)cc3)CC2)nc(-c2ccc(NC(=O)Nc3ccc(C(F)(F)F)cc3)cc2)n1` [Example 8k, 1-[4-[4-[1-(4-fluorophenyl)sulfonylcyclopropyl]-6-[(3S)-3-methylmorpholin-4-yl]pyrimidin-2-yl]phenyl]-3-[4-(trifluoromethyl)phenyl]urea] gave an IC50 of 17.3 nM.
With `C[C@H]1COCCN1c1cc(C2(S(=O)(=O)c3ccc(F)cc3)CC2)nc(-c2ccc(NC(=O)Nc3cnn(C)c3)cc2)n1` [Example 8m, 1-[4-[4-[1-(4-fluorophenyl)sulfonylcyclopropyl]-6-[(3S)-3-methylmorpholin-4-yl]pyrimidin-2-yl]phenyl]-3-(1-methylpyrazol-4-yl)urea] the IC50 was 1.36 nM.
`C[C@H]1COCCN1c1cc(C2(S(=O)(=O)C3CCCC3)CC2)nc(-c2ccc(NC(=O)NC3CC3)cc2)n1` [Example 9, 1-[4-[4-(1-Cyclopentylsulfonylcyclopropyl)-6-[(3S)-3-methylmorpholin-4-yl]pyrimidin-2-yl]phenyl]-3-cyclopropyl-urea] showed an IC50 of 1.8 nM.
For `C[C@H]1COCCN1c1cc(C2(S(=O)(=O)C3CCCC3)CC2)nc(-c2ccc(NC(=O)NC3CCC3)cc2)n1` [Example 9a], the IC50 was 12.9 nM.
In the case of `CC(C)NC(=O)Nc1ccc(-c2nc(N3CCOC[C@@H]3C)cc(C3(S(=O)(=O)C4CCCC4)CC3)n2)cc1` [Example 9d], the IC50 is reported as 15.1 nM.
Work on `CCNC(=O)Nc1ccc(-c2nc(N3CCOC[C@@H]3C)cc(C3(S(=O)(=O)C4CCCC4)CC3)n2)cc1` [Example 9e] yielded an IC50 of 1.87 nM.
`CCCNC(=O)Nc1ccc(-c2nc(N3CCOC[C@@H]3C)cc(C3(S(=O)(=O)C4CCCC4)CC3)n2)cc1` [Example 9h] was tested, and the IC50 was 5.7 nM.
In the case of `CNC(=O)Nc1ccc(-c2nc(N3CCOC[C@@H]3C)cc(C3(S(=O)(=O)C4CCCC4)CC3)n2)cc1` [Example 9i], the IC50 is reported as 2.4 nM.
`C[C@H]1COCCN1c1cc(C2(S(=O)(=O)C3CCCC3)CC2)nc(-c2ccc(NC(=O)NC(C)(C)CO)cc2)n1` [Example 9k] was tested, and the IC50 was 11.5 nM.
Work on `C[C@H]1COCCN1c1cc(C2(S(=O)(=O)c3ccccc3C(F)(F)F)CC2)nc(-c2ccc(NC(=O)NC3CC3)cc2)n1` [Example 10, 3-Cyclopropyl-1-[4-[4-[(3S)-3-methylmorpholin-4-yl]-6-[1-[2-(trifluoromethyl)phenyl]sulfonylcyclopropyl]pyrimidin-2-yl]phenyl]urea] yielded an IC50 of 4.48 nM.
In the case of `C[C@H]1COCCN1c1cc(C2(S(=O)(=O)c3ccccc3C(F)(F)F)CC2)nc(-c2ccc(NC(=O)NC3CCC3)cc2)n1` [Example 10a, 3-cyclobutyl-1-[4-[4-[(3S)-3-methylmorpholin-4-yl]-6-[1-[2-(trifluoromethyl)phenyl]sulfonylcyclopropyl]pyrimidin-2-yl]phenyl]urea], the IC50 is reported as 39.5 nM.
For `C[C@H]1COCCN1c1cc(C2(S(=O)(=O)c3ccccc3C(F)(F)F)CC2)nc(-c2ccc(NC(=O)Nc3ccccn3)cc2)n1` [Example 10b, 1-[4-[4-[(3S)-3-methylmorpholin-4-yl]-6-[1-[2-(trifluoromethyl)phenyl]sulfonylcyclopropyl]pyrimidin-2-yl]phenyl]-3-pyridin-2-yl-urea], the IC50 was 26.6 nM.
With `CC(C)CNC(=O)Nc1ccc(-c2nc(N3CCOC[C@@H]3C)cc(C3(S(=O)(=O)c4ccccc4C(F)(F)F)CC3)n2)cc1` [Example 10c, 1-[4-[4-[(3S)-3-methylmorpholin-4-yl]-6-[1-[2-(trifluoromethyl)phenyl]sulfonylcyclopropyl]pyrimidin-2-yl]phenyl]-3-(2-methylpropyl)urea] the IC50 was 147 nM.
`CC(C)NC(=O)Nc1ccc(-c2nc(N3CCOC[C@@H]3C)cc(C3(S(=O)(=O)c4ccccc4C(F)(F)F)CC3)n2)cc1` [Example 10d, 1-[4-[4-[(3S)-3-methylmorpholin-4-yl]-6-[1-[2-(trifluoromethyl)phenyl]sulfonylcyclopropyl]pyrimidin-2-yl]phenyl]-3-propan-2-yl-urea] was tested, and the IC50 was 43.2 nM.
Work on `CCNC(=O)Nc1ccc(-c2nc(N3CCOC[C@@H]3C)cc(C3(S(=O)(=O)c4ccccc4C(F)(F)F)CC3)n2)cc1` [Example 10e, 1-ethyl-3-[4-[4-[(3S)-3-methylmorpholin-4-yl]-6-[1-[2-(trifluoromethyl)phenyl]sulfonylcyclopropyl]pyrimidin-2-yl]phenyl]urea] yielded an IC50 of 6.91 nM.
`C[C@H]1COCCN1c1cc(C2(S(=O)(=O)c3ccccc3C(F)(F)F)CC2)nc(-c2ccc(NC(=O)NCCN(C)C)cc2)n1` [Example 10f, 3-(2-dimethylaminomethyl)-1-[4-[4-[(3S)-3-methylmorpholin-4-yl]-6-[1-[2-(trifluoromethyl)phenyl]sulfonylcyclopropyl]pyrimidin-2-yl]phenyl]urea] was tested, and the IC50 was 174 nM.
Compound `C[C@H]1COCCN1c1cc(C2(S(=O)(=O)c3ccccc3C(F)(F)F)CC2)nc(-c2ccc(NC(=O)NCCO)cc2)n1` [Example 10g] has an IC50 of 1.56 nM.
Compound `CCCNC(=O)Nc1ccc(-c2nc(N3CCOC[C@@H]3C)cc(C3(S(=O)(=O)c4ccccc4C(F)(F)F)CC3)n2)cc1` [Example 10h, 3-[4-[4-[(3S)-3-methylmorpholin-4-yl]-6-[1-[2-(trifluoromethyl)phenyl]sulfonylcyclopropyl]pyrimidin-2-yl]phenyl]-1-propyl-urea] has an IC50 of 26.8 nM.
In the case of `CNC(=O)Nc1ccc(-c2nc(N3CCOC[C@@H]3C)cc(C3(S(=O)(=O)c4ccccc4C(F)(F)F)CC3)n2)cc1` [Example 10i, 3-methyl-1-[4-[4-[(3S)-3-methylmorpholin-4-yl]-6-[1-[2-(trifluoromethyl)phenyl]sulfonylcyclopropyl]pyrimidin-2-yl]phenyl]urea], the IC50 is reported as 5.91 nM.
`C[C@H]1COCCN1c1cc(C2(S(=O)(=O)c3ccccc3C(F)(F)F)CC2)nc(-c2ccc(NC(=O)Nc3ccc(C(F)(F)F)cc3)cc2)n1` [Example 10j, 1-[4-[4-[(3S)-3-methylmorpholin-4-yl]-6-[1-[2-(trifluoromethyl)phenyl]sulfonylcyclopropyl]pyrimidin-2-yl]phenyl]-3-[4-(trifluoromethyl)phenyl]urea] was tested, and the IC50 was 110 nM.
Compound `C[C@H]1COCCN1c1cc(C2(S(=O)(=O)c3ccccc3C(F)(F)F)CC2)nc(-c2ccc(NC(=O)NC(C)(C)CO)cc2)n1` [Example 10k, 3-(1-hydroxy-2-methyl-propan-2-yl)-1-[4-[4-[(3S)-3-methylmorpholin-4-yl]-6-[1-[2-(trifluoromethyl)phenyl]sulfonylcyclopropyl]pyrimidin-2-yl]phenyl]urea] has an IC50 of 50.2 nM.
`C[C@H]1COCCN1c1cc(C2(S(=O)(=O)c3ccccc3C(F)(F)F)CC2)nc(-c2ccc(NC(=O)NCCCO)cc2)n1` [Example 10l, 3-(3-hydroxypropyl)-1-[4-[4-[(3S)-3-methylmorpholin-4-yl]-6-[1-[2-(trifluoromethyl)phenyl]sulfonylcyclopropyl]pyrimidin-2-yl]phenyl]urea] gave an IC50 of 18.3 nM.
`C[C@H]1COCCN1c1cc(C2(S(=O)(=O)c3ccccc3C(F)(F)F)CC2)nc(-c2ccc(NC(=O)Nc3cnn(C)c3)cc2)n1` [Example 10m, 1-[4-[4-[(3S)-3-methylmorpholin-4-yl]-6-[1-[2-(trifluoromethyl)phenyl]sulfonylcyclopropyl]pyrimidin-2-yl]phenyl]-3-(1-methylpyrazol-4-yl)urea] gave an IC50 of 4.97 nM.
Compound `CCS(=O)(=O)C1(c2cc(N3CCOC[C@@H]3C)nc(-c3ccc(NC(=O)NC4CC4)cc3)n2)CC1` [Example 11, 3-Cyclopropyl-1-[4-[4-(1-ethylsulfonylcyclopropyl)-6-[(3S)-3-methylmorpholin-4-yl]pyrimidin-2-yl]phenyl]urea] has an IC50 of 1.65 nM.
With `CCS(=O)(=O)C1(c2cc(N3CCOC[C@@H]3C)nc(-c3ccc(NC(=O)NC)cc3)n2)CC1` [Example 11a, 1-[4-[4-(1-ethylsulfonylcyclopropyl)-6-[(3S)-3-methylmorpholin-4-yl]pyrimidin-2-yl]phenyl]-3-methyl-urea] the IC50 was 4.18 nM.
In the case of `CCNC(=O)Nc1ccc(-c2nc(N3CCOC[C@@H]3C)cc(C3(S(=O)(=O)CC)CC3)n2)cc1` [Example 11b, 1-ethyl-3-[4-[4-(1-ethylsulfonylcyclopropyl)-6-[(3S)-3-methylmorpholin-4-yl]pyrimidin-2-yl]phenyl]urea], the IC50 is reported as 3.33 nM.
Compound `CCS(=O)(=O)C1(c2cc(N3CCOC[C@@H]3C)nc(-c3ccc(NC(=O)NC(C)C)cc3)n2)CC1` [Example 11c, 1-[4-[4-(1-ethylsulfonylcyclopropyl)-6-[(3S)-3-methylmorpholin-4-yl]pyrimidin-2-yl]phenyl]-3-propan-2-yl-urea] has an IC50 of 24.7 nM.
For `CCS(=O)(=O)C1(c2cc(N3CCOC[C@@H]3C)nc(-c3ccc(NC(=O)NC4CCC4)cc3)n2)CC1` [Example 11d, 3-cyclobutyl-1-[4-[4-(1-ethylsulfonylcyclopropyl)-6-[(3S)-3-methylmorpholin-4-yl]pyrimidin-2-yl]phenyl]urea], the IC50 was 6.42 nM.
`CCS(=O)(=O)C1(c2cc(N3CCOC[C@@H]3C)nc(-c3ccc(NC(=O)NCCO)cc3)n2)CC1` [Example 11e, 1-[4-[4-(1-ethylsulfonylcyclopropyl)-6-[(3S)-3-methylmorpholin-4-yl]pyrimidin-2-yl]phenyl]-3-(2-hydroxyethyl)urea] showed an IC50 of 1.35 nM.
In the case of `CCS(=O)(=O)C1(c2cc(N3CCOC[C@@H]3C)nc(-c3ccc(NC(=O)NC(C)(C)CO)cc3)n2)CC1` [Example 11f, 1-[4-[4-(1-ethylsulfonylcyclopropyl)-6-[(3S)-3-methylmorpholin-4-yl]pyrimidin-2-yl]phenyl]-3-(1-hydroxy-2-methyl-propan-2-yl)urea], the IC50 is reported as 3.37 nM.
In the case of `CCS(=O)(=O)C1(c2cc(N3CCOC[C@@H]3C)nc(-c3ccc(NC(=O)NCCN(C)C)cc3)n2)CC1` [Example 11g, 3-(2-dimethylaminomethyl)-1-[4-[4-(1-ethylsulfonylcyclopropyl)-6-[(3S)-3-methylmorpholin-4-yl]pyrimidin-2-yl]phenyl]urea], the IC50 is reported as 313 nM.

Same assay, conditions: table of enzyme assay Test (a)(ii); read-out: Test (a)(ii) IC50
`C[C@H]1COCCN1c1cc(C2(S(=O)(=O)c3ccc(F)cc3)CC2)nc(-c2ccc(NC(=O)Nc3ccccn3)cc2)n1` [Example 8l, 1-[4-[4-[1-(4-fluorophenyl)sulfonylcyclopropyl]-6-[(3S)-3-methylmorpholin-4-yl]pyrimidin-2-yl]phenyl]-3-pyridin-2-yl-urea] showed an IC50 of 8.13 nM.
`CCS(=O)(=O)C1(c2cc(N3CCOC[C@@H]3C)nc(-c3ccc(NC(=O)NC)cc3)n2)CC1` [Example 11a, 1-[4-[4-(1-ethylsulfonylcyclopropyl)-6-[(3S)-3-methylmorpholin-4-yl]pyrimidin-2-yl]phenyl]-3-methyl-urea] was tested, and the IC50 was 5.9 nM.
For `CCS(=O)(=O)C1(c2cc(N3CCOC[C@@H]3C)nc(-c3ccc(NC(=O)NCCO)cc3)n2)CC1` [Example 11e, 1-[4-[4-(1-ethylsulfonylcyclopropyl)-6-[(3S)-3-methylmorpholin-4-yl]pyrimidin-2-yl]phenyl]-3-(2-hydroxyethyl)urea], the IC50 was 1.97 nM.
